The text below walks through data of publication PMC9448386, “Discovery of novel conjugates of quinoline and thiazolidinone urea as potential anti-colorectal cancer agent” (Journal of Enzyme Inhibition and Medicinal Chemistry, 2022).

By IC50 is commonly meant the point on the concentration scale where inhibition reaches its midpoint.

Data set [1] concerns the target T1, AXL (Homo sapiens, UniProt P30530).
T1 sequence (P30530 26-894): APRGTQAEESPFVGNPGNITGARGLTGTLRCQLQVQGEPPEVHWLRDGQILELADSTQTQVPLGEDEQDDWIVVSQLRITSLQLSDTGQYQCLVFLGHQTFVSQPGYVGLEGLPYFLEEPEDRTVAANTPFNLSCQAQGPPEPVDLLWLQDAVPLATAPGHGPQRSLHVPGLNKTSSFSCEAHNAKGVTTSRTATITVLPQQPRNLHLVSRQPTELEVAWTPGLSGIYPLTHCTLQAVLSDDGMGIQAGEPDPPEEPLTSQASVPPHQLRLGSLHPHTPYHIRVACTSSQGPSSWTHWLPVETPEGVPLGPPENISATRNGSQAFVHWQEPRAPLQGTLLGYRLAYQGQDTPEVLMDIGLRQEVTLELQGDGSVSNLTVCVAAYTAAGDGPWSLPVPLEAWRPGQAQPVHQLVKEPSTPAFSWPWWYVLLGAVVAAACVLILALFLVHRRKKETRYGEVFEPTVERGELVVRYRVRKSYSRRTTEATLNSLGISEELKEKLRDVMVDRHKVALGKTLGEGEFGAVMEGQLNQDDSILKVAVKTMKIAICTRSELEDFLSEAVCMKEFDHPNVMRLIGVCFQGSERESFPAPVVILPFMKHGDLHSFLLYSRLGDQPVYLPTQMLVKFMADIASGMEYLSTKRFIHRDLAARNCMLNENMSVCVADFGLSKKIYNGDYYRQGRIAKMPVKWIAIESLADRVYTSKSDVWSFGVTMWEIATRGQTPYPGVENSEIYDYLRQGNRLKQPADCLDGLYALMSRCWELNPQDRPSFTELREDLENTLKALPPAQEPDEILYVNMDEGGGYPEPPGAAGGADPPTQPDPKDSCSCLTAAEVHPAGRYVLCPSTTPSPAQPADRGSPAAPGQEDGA
The data set can be described thus: Mobility shift assay, AXL. The conditions noted are these: mean of two independent experiments, SD shown. It counts as biochemical. The protocol: (§1) Kinase inhibitory activity against HGFR, MST1R, ABL, PDGFRβ, AXL, FLT3, RET, c-Src, and VEGFR-2 was evaluated by the mobility shift assay. Detailed operation could be found in our previous research.

A short description of data set [2]: MTT assay, cytotoxicity against FHC cells. It is filed as cell-based. The following applies: FHC cells (normal colorectal mucosa epithelial cells); human normal colorectal mucosa epithelial cells; average of three separate determinations. As to the method:
In order to investigate the cell selectivity index, the cytotoxicity of potent compounds against human normal colorectal mucosa epithelial cell FHC cells was determined.
(§2) Taking lead compound BC2021-104511-15i, Fruquintinib and Regorafenib as positive controls, the cytotoxic activity against HT-29, HCT-116, COLO-205 and FHC cell lines by MTT assay. Detailed operation could be found in our previous study.

The target in data set [3] is ABL (Homo sapiens, UniProt P00519). The data set can be described thus: Mobility shift assay, ABL. It counts as biochemical. The conditions noted are these: mean of two independent experiments, SD shown. As to the method:
as §1

For data set [4], the target named is c-Src (Homo sapiens, UniProt P12931). The data set can be described thus: Mobility shift assay, c-Src. It counts as biochemical. The following applies: mean of two independent experiments, SD shown. As to the method: as §1
c-Src, sequence (P12931 whole entry): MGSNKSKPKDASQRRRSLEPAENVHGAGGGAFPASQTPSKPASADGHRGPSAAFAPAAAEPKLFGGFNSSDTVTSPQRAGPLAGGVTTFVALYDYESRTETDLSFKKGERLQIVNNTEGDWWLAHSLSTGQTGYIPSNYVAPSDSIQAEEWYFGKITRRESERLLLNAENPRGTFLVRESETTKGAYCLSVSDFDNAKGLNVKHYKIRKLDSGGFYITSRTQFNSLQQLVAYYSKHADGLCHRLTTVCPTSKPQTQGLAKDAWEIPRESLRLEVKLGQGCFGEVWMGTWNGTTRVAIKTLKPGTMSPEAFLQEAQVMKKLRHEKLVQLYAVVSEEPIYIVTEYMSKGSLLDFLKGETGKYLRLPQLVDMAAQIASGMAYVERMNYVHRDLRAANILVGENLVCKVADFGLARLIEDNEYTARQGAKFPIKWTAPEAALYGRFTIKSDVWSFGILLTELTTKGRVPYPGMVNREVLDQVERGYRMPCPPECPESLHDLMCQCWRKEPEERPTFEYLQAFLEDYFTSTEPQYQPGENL
For data set [5], the system named is HT-29 cells. The data set can be described thus: MTT assay, cytotoxic activity against HT-29. It is filed as cell-based, human. The following applies: Homo sapiens, HT-29, average of three separate determinations, SD shown.
Excerpt: as §2
(In general: Tetrazolium assays rely on reduction of a dye to a coloured formazan, in cell work by metabolically active cells.)

For data set [6], the target named is MST1R (Homo sapiens, UniProt Q04912). Kind of data set: Mobility shift assay, MST1R kinase inhibition. It counts as biochemical. The conditions noted are these: mean of two independent experiments. As to the method: as §1
The test system of data set [7] is COLO 205 cells. The data set can be described thus: MTT assay, cytotoxic activity against COLO 205. It is filed as cell-based. The following applies: Homo sapiens, COLO 205; MTT; average of three separate determinations, SD shown.
Excerpt: as §2

The test system of data set [8] is HCT-116 cells. Kind of data set: MTT assay, cytotoxic activity against HCT-116. It counts as cell-based. The conditions noted are these: Homo sapiens, average of three separate determinations, SD shown.
Excerpt: as §2

The target of data set [9] is VEGFR-2 (Homo sapiens, UniProt P35968). The data set can be described thus: Mobility shift assay, VEGFR-2. It counts as biochemical. The following applies: mean of two independent experiments, SD shown. As to the method: as §1
VEGFR-2, sequence (P35968 20-1356): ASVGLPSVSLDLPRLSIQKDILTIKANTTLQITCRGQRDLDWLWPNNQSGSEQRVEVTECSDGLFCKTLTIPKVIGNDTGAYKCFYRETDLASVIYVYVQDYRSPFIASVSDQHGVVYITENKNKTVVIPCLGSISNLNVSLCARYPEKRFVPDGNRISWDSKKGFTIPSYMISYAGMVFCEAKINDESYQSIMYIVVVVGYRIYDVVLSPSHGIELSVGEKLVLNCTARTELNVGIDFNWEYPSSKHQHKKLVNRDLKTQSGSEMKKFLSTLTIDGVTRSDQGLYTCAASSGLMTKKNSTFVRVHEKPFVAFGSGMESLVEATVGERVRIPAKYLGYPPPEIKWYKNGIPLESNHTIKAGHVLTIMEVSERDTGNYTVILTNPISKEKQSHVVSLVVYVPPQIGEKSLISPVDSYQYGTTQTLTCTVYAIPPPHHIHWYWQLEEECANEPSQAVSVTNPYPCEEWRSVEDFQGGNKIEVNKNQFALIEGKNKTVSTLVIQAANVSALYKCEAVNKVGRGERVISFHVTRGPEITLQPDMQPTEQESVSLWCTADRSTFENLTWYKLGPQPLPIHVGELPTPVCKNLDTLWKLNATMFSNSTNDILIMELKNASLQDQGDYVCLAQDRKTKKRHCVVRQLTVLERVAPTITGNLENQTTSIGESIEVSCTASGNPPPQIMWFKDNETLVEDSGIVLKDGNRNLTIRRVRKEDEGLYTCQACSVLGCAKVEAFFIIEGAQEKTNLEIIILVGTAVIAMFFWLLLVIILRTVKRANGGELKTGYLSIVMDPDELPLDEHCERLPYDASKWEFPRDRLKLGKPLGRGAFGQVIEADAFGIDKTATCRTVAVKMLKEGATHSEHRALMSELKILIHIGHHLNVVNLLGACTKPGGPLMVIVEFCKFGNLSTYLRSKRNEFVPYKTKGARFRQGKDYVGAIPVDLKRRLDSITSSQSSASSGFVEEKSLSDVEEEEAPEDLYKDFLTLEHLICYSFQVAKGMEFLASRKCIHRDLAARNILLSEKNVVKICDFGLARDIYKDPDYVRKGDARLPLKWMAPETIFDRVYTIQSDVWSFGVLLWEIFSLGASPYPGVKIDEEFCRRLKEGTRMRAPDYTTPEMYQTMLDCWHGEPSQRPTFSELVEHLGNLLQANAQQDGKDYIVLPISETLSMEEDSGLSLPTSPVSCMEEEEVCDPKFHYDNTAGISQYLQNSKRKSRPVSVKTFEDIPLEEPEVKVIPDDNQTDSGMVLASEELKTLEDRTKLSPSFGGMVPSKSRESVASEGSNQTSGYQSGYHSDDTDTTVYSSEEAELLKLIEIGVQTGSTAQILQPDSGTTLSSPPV
Data set [10] deals with PDGFRβ (Homo sapiens, UniProt P09619). Kind of data set: Mobility shift assay, PDGFRβ. It is filed as biochemical. The conditions noted are these: mean of two independent experiments, SD shown. As to the method: as §1
PDGFRβ, sequence (P09619 33-1106): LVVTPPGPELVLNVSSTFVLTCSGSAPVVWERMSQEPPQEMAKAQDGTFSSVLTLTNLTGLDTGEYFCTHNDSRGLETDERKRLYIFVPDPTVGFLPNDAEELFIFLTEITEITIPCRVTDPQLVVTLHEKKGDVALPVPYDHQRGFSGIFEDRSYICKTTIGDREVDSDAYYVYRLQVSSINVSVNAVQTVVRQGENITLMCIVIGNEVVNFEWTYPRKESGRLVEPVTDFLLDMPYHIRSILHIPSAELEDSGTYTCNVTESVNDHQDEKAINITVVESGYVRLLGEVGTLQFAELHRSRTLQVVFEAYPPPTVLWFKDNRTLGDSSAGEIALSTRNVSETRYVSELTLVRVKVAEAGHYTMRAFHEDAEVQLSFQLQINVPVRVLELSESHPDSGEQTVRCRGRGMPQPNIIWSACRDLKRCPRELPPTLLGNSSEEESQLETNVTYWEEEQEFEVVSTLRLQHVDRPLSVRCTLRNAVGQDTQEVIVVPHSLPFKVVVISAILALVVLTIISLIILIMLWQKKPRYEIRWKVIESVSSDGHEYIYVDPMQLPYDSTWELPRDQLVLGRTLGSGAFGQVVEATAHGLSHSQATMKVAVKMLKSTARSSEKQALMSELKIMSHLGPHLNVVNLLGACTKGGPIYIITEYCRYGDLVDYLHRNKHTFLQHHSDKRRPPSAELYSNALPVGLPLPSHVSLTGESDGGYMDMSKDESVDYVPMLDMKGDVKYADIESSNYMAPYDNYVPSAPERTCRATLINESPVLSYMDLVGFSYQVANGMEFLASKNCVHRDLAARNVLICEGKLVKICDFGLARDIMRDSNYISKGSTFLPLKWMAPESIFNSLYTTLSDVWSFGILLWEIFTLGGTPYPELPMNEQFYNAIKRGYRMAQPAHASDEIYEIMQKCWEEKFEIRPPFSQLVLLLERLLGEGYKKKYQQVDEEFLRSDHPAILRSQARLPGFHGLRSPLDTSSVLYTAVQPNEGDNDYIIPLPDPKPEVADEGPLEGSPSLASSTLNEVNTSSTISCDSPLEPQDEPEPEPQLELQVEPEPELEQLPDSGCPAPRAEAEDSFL
In data set [11] the target is RET (Homo sapiens, UniProt P07949). Kind of data set: Mobility shift assay, RET. It is filed as biochemical. The following applies: mean of two independent experiments, SD shown. The protocol:
as §1

Data set [12] deals with T2, FLT3 (Homo sapiens, UniProt P36888).
T2 sequence (P36888 27-993): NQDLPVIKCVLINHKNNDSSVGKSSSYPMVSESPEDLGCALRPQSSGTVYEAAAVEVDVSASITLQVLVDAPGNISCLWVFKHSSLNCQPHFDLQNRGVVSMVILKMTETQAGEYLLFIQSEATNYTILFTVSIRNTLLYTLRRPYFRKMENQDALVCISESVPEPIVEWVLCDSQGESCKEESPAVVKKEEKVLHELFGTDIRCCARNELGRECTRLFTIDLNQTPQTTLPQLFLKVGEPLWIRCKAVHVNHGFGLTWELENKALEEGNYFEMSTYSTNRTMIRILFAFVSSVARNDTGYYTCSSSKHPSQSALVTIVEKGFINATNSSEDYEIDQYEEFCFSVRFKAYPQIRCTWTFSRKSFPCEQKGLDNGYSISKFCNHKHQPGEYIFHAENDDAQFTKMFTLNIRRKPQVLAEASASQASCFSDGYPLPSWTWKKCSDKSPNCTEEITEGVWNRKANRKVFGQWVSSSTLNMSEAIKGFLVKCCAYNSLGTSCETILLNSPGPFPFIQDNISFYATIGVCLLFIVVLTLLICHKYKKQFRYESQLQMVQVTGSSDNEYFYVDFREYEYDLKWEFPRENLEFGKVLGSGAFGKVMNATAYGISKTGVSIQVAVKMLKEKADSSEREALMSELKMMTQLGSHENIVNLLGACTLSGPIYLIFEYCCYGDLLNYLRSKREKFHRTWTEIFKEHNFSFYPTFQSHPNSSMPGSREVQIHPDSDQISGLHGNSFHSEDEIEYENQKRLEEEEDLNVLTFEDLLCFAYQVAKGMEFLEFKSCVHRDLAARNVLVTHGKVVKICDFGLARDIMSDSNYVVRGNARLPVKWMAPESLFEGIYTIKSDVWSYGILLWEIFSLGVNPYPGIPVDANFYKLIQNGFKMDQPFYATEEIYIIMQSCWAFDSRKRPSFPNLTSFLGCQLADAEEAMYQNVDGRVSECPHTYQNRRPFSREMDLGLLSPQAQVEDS
The data set can be described thus: Mobility shift assay, FLT3. It counts as biochemical. The conditions noted are these: mean of two independent experiments, SD shown. The protocol:
as §1

Data set [13] concerns the target HGFR (Homo sapiens, UniProt P08581). The data set can be described thus: Mobility shift assay, HGFR kinase inhibition. It counts as biochemical. The conditions noted are these: mean of two independent experiments. As to the method:
as §1

SMILES strings stand for the structures. Some results are limits rather than exact numbers.

ABL, sequence (P00519 whole entry): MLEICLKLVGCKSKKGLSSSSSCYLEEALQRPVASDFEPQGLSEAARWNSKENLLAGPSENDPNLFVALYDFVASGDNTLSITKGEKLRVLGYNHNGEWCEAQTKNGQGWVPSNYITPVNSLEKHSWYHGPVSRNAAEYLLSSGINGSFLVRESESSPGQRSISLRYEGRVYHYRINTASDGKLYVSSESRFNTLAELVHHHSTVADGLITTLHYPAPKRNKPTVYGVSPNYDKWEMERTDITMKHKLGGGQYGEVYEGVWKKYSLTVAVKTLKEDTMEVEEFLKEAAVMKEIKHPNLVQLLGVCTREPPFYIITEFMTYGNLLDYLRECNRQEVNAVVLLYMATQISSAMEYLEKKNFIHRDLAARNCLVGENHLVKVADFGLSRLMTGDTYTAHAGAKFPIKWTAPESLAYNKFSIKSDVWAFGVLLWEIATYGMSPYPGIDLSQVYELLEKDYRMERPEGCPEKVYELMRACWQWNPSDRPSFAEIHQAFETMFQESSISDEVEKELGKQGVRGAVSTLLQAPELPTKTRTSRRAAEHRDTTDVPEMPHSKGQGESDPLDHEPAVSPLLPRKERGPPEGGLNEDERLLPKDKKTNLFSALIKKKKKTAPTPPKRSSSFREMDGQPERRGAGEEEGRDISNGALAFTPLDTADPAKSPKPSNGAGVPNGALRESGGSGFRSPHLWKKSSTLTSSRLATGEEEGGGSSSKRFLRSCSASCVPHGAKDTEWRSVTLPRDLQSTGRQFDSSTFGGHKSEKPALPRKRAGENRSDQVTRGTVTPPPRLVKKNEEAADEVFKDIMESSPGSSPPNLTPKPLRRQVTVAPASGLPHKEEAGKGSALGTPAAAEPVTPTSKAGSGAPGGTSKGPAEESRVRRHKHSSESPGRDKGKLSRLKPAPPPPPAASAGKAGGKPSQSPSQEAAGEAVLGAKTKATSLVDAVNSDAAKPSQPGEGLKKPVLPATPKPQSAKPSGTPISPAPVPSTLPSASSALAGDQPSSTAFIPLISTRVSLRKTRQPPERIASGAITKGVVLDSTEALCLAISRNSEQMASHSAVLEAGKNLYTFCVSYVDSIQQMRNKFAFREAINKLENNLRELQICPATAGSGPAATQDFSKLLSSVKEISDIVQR

In the case of `COCC(=O)N1CCC(Oc2cc3nccc(Oc4ccc(NC(=O)NN5C(=O)CSC5c5c(F)cccc5F)cc4F)c3cc2OC)CC1` (stereo not shown) [Compound 10b, 1–(2-(2,6-Difluorophenyl)-4-oxothiazolidin-3-yl)-3–(3-fluoro-4-((6-methoxy-7-((1–(2-methoxyacetyl)piperidin-4-yl)oxy)quinolin-4-yl)oxy)phenyl)urea], the IC50 in [1] is 1.5 ± 0.15 µM; in data set [2] it was above 10 µM; in data set [3], 3.28 ± 0.26 µM; in data set [4], 0.69 ± 0.057 µM; in data set [5] it was 3 ± 0.24 µM; in [6] it was 0.085 µM. Also, the IC50 is 0.31 ± 0.021 µM in data set [7]; 3.7 ± 0.34 µM in [8]; 2.36 ± 0.18 µM in [9]; 1.2 ± 0.095 µM in [10]; 1.52 ± 0.14 µM in data set [11]; above 10 µM in data set [12]. Also, the IC50 in [13] stood at 0.18 µM.
